Measured values: paper PMC5619819, “A highly-sensitive high throughput assay for dynamin's basal GTPase activity” (PLoS ONE, 2017)
Values joined by “and” are separate entries in the source; they are usually repeats but may differ in a detail not shown here. Equal entries are not always repeated. “Also recorded” adds a separate entry of the source.

What was measured:
Dynamin-1 (Dyn1) [1] = target: T1, Dynamin-1 (Dyn1) (Homo sapiens, UniProt Q05193); test: Transcreener GDP fluorescence polarization assay, basal GTPase activity; format: biochemical; conditions: for inhibition of basal GTPase activity (result in words): high salt (150 mM KCl), inhibitor 1 nM to 100 μM
T1 construct: made in house; host or cells: Sf9 (Spodoptera frugiperda) insect cells
T1 sequence (Q05193 1-864): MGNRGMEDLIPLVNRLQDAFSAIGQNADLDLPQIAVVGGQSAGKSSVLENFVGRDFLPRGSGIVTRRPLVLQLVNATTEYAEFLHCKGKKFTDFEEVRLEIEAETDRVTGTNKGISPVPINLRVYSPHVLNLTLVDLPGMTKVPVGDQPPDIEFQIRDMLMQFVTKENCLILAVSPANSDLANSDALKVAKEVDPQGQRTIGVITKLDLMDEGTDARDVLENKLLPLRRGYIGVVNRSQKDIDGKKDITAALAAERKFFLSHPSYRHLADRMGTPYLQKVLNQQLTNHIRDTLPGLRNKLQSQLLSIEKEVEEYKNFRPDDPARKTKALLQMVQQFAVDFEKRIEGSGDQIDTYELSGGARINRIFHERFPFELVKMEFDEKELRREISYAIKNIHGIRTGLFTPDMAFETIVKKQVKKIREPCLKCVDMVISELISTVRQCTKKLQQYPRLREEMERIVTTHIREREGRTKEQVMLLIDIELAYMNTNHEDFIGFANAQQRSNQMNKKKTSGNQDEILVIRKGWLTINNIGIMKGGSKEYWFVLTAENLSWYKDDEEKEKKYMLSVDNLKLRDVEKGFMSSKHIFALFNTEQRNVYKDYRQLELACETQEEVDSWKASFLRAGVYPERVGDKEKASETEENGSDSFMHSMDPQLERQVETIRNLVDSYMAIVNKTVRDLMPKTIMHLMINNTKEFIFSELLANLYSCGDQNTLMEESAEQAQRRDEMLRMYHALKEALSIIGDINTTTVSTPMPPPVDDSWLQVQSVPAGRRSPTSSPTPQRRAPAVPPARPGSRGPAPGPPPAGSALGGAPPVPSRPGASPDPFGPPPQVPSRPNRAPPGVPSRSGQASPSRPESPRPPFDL
Protocol: Dynamin-1 (Dyn1) was expressed in Sf9 (Spodoptera frugiperda, GIBCO-BRL, Gaithersburg, MD) insect cells and purified by affinity chromatography, as previously described. Nucleotide-free protein aliquots were stored in assay buffer containing 20 mM HEPES, 150 mM KCl, 1 mM EDTA, 1 mM EGTA and 1 mM DTT at pH 7.4. The aliquots were flash frozen in liquid nitrogen and stored in -80°C in 5% v/v glycerol. Prior to running assays, frozen aliquots of Dyn1 were thawed and centrifuged at 100,000 g for 15 minutes to remove any aggregates. Dyn1 concentration was determined by measuring its absorbance at 280 nm with a UV/Vis spectrophotometer (Beckman Coulter Inc.) using a molar absorptivity coefficient of 73,800 M^-1 cm^-1.
The Transcreener® GDP FP (BellBrook Labs) assay is an immune-competition assay based on a mouse monoclonal antibody that selectively binds Alexa633-conjugated GDP over GTP. The preformed Alexa633-GDP antibody complex is added at the end of the reaction, and the GDP generated displaces bound Alexa633 fluorescent tracer, resulting in a decrease in its far-red fluorescence polarization (FP). The assay detects GDP production with high sensitivity at low substrate concentrations and has been used to develop an HTS compatible assay for the enzymatic activity of ARFGAP [20]. Stocks of 5 mM GTP, 10x Stop & Detect Buffer B, 400 nM GDP Alexa633 Tracer, and 3100 μg/mL GDP antibody were purchased from BellBrook Labs (Madison, WI). Assays were performed in Corning 384-well plates at room temperature.
All assays were conducted in the endpoint format, which measures total GDP production after 60 minutes of incubation at room temperature. […] The plate was then read for fluorescence polarization in millipolarization units (mP) using an EnVision multi-modal microplate reader (PerkinElmer, Inc.). […]
For the confirmation screen and dose response curves, the data were analyzed by normalizing the sample GDP released to the control GDP released using the following equation: normalizedGTPaseactivity=sampleGDPreleased/controlGDPreleased×100 (4)

dynamin = conditions: low salt, 20 nM dynamin; read-out: IC50, stimulated GTPase activity, sonicated PS liposomes; cited from earlier work
Dynamin-1 (Dyn1) [2] = target: T1, Dynamin-1 (Dyn1); test: Lipid nanotube (NT)-stimulated GTPase activity, malachite green assay; format: biochemical; conditions: 100 nM Dyn1, 300 μM lipid nanotubes, 25 μM GTP, 37°C; read-out: IC50, inhibition of NT-stimulated GTPase activity of Dyn1
Protocol: The lipid nanotube (NT)-stimulated malachite green assays were performed in 96-well plates at 37°C. The final reaction consisted of 100 nM Dyn1, 25 μM GTP, and 300 μM lipid nanotubes. The assay and reagent preparations were performed according to our published protocol. All general chemicals were purchased from Sigma-Aldrich (St. Louis, MO). Compounds tested in the malachite green assay were purchased from Chembridge and ChemDiv (both located in San Diego, CA).
Compound 24 was compared with the two commercially available dynamin inhibitors, Dynasore and Dyngo-4a, in a dose-response assay measuring inhibition of basal GTPase activity under high salt (150 mM KCl) conditions. The concentration of inhibitors ranged from 1 nM to 100 μM. […] Therefore, to more closely parallel previous studies we tested both commercial inhibitors in comparison to compound 24 for their effects on dynamin’s stimulated GTPase activity. Assays were performed in the presence of PI(4,5)P2-containing lipid nanotubes (NT), whose diameter (~ 20 nm) resembles the neck of an invaginated coated pit, using the malachite green assay.

[3] = system: triple dynamin-1, 2, and 3 knockout cells; set-up: method as in PMID 24046449; conditions: cited from earlier work

| Compound | inhibition of basal GTPase activity (result in words) (Dynamin-1 (Dyn1) [1]) | IC50 (dynamin) | IC50 (Dynamin-1 (Dyn1) [2]) | inhibition of endocytosis (result in words) [3] | IC50 (Dynamin-1 (Dyn1) [1]; 50 nM Dyn1, 10 μM GTP, 60 min, room temperature, 11-point dose response 1 nM to 100 μM, read-out: IC50, inhibition of basal GTPase activity of Dyn1) |
| --- | --- | --- | --- | --- | --- |
| O=C(N/N=C/c1ccc(O)c(O)c1)c1cc2ccccc2cc1O [Dynasore] | do not appear to inhibit basal GTPase activity even at high concentrations; also recorded: neither was able to inhibit basal GTPase activity | 0.4 µM | 83.5 µM | continue to inhibit endocytosis | – |
| O=C(N/N=C/c1cc(O)c(O)cc1O)c1cc2ccccc2cc1O [Dyngo-4a] | do not appear to inhibit basal GTPase activity even at high concentrations; also recorded: neither was able to inhibit basal GTPase activity | 12 µM | 45.4 µM | continue to inhibit endocytosis | – |
| CN(C)c1ccc(/C=C/C=C2/SC(=S)NC2=O)cc1 [compound 24] | – | – | 6.4 µM and ~6 µM | – | 0.58 µM and ~0.6 µM |
